Measurements reported in patent US11618747B2, “LXR modulators with bicyclic core moiety” (OrsoBio, Inc., priority 2018, dated 2023).

target: T1, LXRβ ligand-binding domain (Homo sapiens, UniProt P55055, DUP175-175); assay: TR-FRETβ activity assay (NCoA3 coactivator peptide recruitment); assay type: biochemical; details: TR-FRET, 1 μM 24(S)-25-epoxycholesterol prestimulation; read-out: FRETβ (EC50 range)
T1 construct: amino acids 156-461; NP009052; made in house; host or cells: E. coli
T1 sequence (P55055 with tags, fused parts or gaps DUP175-175 limits assumed): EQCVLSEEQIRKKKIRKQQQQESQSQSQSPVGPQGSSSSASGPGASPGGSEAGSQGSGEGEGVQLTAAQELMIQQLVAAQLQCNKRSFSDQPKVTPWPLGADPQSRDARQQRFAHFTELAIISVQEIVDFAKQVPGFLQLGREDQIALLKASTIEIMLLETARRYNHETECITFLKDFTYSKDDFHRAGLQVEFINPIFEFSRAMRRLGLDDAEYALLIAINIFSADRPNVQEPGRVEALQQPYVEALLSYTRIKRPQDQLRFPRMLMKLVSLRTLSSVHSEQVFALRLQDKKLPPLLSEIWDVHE
Method: (§1) The tested compounds were usually dissolved, tested and stored as 20 mM stock solutions in DMSO. Since sulfonyl acetic acid derivatives tend to decarboxylate under these conditions, these stock solutions were prepared, tested and stored as 20 mM DMSO stock solutions containing 100 mM trifluoroacetic Acid (5 equivalents). Sulfonyl acetic acid derivatives are shelf stable as solid at rt for long time as reported by Griesbrecht et al. (Synlett 2010:374) or Faucher et al. (J. Med. Chem. 2004; 47:18).
Recombinant GST-LXRPβ ligand-binding domain (LBD; amino acids 156-461; NP009052; SEQ ID NO:4) was expressed in E. coli and purified via gluthatione-sepharose affinity chromatography. N-terminally biotinylated NCoA3 coactivator peptide (SEQ ID NO:7) was chemically synthesized (Eurogentec). Assays were done in 384 well format (final assay volume of 25 μL/well) in a Tris/HCl buffer (pH 6.8) containing KCl, bovine serum albumin, Triton-X-100 and 1 μM 24(S)-25-epoxycholesterol as LXR-prestimulating agonist. Assay buffer was provided and test articles (potential LXR inverse agonists) were titrated to yield final assay concentrations of 50 μM, 16.7 μM, 5.6 μM, 1.9 μM, 0.6 μM, 0.2 μM, 0.07 μM, 0.02 μM, 0.007 μM, 0.002 μM with one vehicle control. Finally, a detection mix was added containing anti GST-Tb cryptate (CisBio; 610SAXLB) and Streptavidin-XL665 (CisBio; 610SAXLB) as fluorescent donor and acceptor, respectively, as well as the coactivator peptide and LXRβ-LBD protein (SEQ ID NO:4). The reaction was mixed thoroughly, equilibrated for 1 h at 4° C. and vicinity of LXRβ and coactivator peptide was detected by measurement of fluorescence in a VictorX4 multiplate reader (PerkinElmer Life Science) using 340 nm as excitation and 615 and 665 nm as emission wavelengths. Assays were performed in triplicates.
Final Assay Concentrations of Components:
240 mM KCl, 1 μg/μL BSA, 0.002% Triton-X-100, […] anti GST-Tb cryptate, 2.5 ng/μL Streptavidin-XL665, coactivator peptide (400 nM), LXRβ protein (530 μg/mL, i.e. 76 nM).

Compound	EC50
COCc1sccc1-c1c(-c2cccc(N3CC(C(=O)O)C3)c2)n(S(=O)(=O)c2ccc(C)cc2)c2ccc(F)cc12 [3/6]	1000 to 10000 nM
CCc1ccc(S(=O)(=O)n2c(-c3cccc(N4CC(C(=O)O)C4)c3)c(-c3ccsc3C#N)c3cc(F)ccc32)cc1 [3/10]	100 to 1000 nM
N#Cc1sccc1-c1c(-c2cccc(N3CC(C(=O)O)C3)c2)n(S(=O)(=O)c2ccc3c(c2)CCC3)c2ccc(F)cc12 [3/12]	100 to 1000 nM
N#Cc1sccc1-c1c(-c2cccc(N3CC(C(=O)O)C3)c2)n(S(=O)(=O)c2ccc3ccccc3c2)c2ccc(F)cc12 [3/13]	1000 to 10000 nM
Cc1ccc(S(=O)(=O)n2c(-c3cccc(N4CC(C(=O)O)C4)c3)c(-c3ccsc3C#N)c3cc(F)ccc32)c(F)c1 [3/14]	1000 to 10000 nM
CC1CCN(S(=O)(=O)n2c(-c3cccc(-c4ccc(C(=O)O)cc4Cl)c3)c(-c3ccsc3C#N)c3cc(F)ccc32)CC1 [3/21]	100 to 1000 nM
[2H]c1c([2H])c(S(=O)(=O)n2c(-c3cccc(-c4ccc(C(=O)O)cc4Cl)c3)c(-c3ccsc3C#N)c3cc(F)ccc32)c([2H])c([2H])c1C([2H])([2H])[2H] [3/22]	< 100 nM
Cc1cc(S(=O)(=O)n2c(-c3cccc(-c4ccc(C(=O)O)cc4Cl)c3)c(-c3ccsc3C#N)c3cc(F)ccc32)ccc1F [3/23]	100 to 1000 nM
Cc1ccc(S(=O)(=O)n2c(-c3cccc(N4CC(C(=O)O)C4)c3)c(-c3sccc3C#N)c3cc(F)ccc32)cc1 [3/25]	1000 to 10000 nM
Cc1ccc(S(=O)(=O)n2c(-c3cccc(N4CC(C(=O)O)C4)c3)c(-c3ccoc3C#N)c3cc(F)ccc32)cc1 [3/26]	1000 to 10000 nM
Cc1ccc(S(=O)(=O)n2c(-c3cccc(N4CC(C(=O)O)C4)c3)c(-c3ccsc3CCO)c3cc(F)ccc32)cc1 [3/27]	1000 to 10000 nM

target: T2, full length (FL) LXRα (Homo sapiens, UniProt Q13133); assay: LXR Gal4 reporter transient transfection assay (FL-M2H Gal4α); assay type: cell-based; details: HEK293 cells, full length LXRα; read-out: FL-M2H Gal4α (EC50 range)
T2 construct: the full length (FL) proteins of LXRα (amino acids 1-447); NP005684; expressed in transfected cells; host or cells: HEK293
T2 sequence (Q13133 1-447): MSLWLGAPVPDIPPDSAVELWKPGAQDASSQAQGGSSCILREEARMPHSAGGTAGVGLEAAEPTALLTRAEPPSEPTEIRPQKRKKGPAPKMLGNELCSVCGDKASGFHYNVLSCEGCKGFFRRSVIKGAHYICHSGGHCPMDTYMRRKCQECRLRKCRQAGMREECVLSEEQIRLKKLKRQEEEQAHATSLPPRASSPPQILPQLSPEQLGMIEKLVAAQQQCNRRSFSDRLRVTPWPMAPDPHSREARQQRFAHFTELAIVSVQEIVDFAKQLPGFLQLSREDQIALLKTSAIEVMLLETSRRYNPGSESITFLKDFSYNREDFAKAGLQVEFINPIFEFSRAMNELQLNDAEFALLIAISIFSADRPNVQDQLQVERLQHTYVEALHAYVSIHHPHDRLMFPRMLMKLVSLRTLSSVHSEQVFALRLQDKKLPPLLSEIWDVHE
Method: as §1
(§2) LXR Gal4 Reporter Transient Transfection Assays
(§3) LXRα and LXRβ activity status was determined via detection of interaction with coactivator and corepressor proteins in mammalian two-hybrid experiments (M2H). For this, via transient transfection the full length (FL) proteins of LXRα (amino acids 1-447; NP005684; SEQ ID NO:1) or LXRβ-(amino acids 1-461; NP009052; SEQ ID NO:2) or the ligand-binding domains (LBD) of LXRα (amino acids 155-447 SEQ ID NO:3) or LXRβ (amino acids 156-461; SEQ ID NO:4) were expressed from pCMV-AD (Stratagene) as fusions to the transcriptional activation domain of NFkB. As cofactors, domains of either the steroid receptor coactivator 1 (SRC1; amino acids 552-887; SEQ ID NO:5) or of the corepressor NCoR (amino acids 1906-2312; NP006302; SEQ ID NO:6) were expressed as fusions to the DNA binding domain of the yeast transcription factor GAL4 (from pCMV-BD; Stratagene). Interaction was monitored via activation of a coexpressed Firefly Luciferase Reporter gene under control of a promoter containing repetitive GAL4 response elements (vector pFRLuc; Stratagene). Transfection efficiency was controlled via cotransfection of constitutively active pRL-CMV Renila reniformis luciferase reporter (Promega). HEK293 cells were grown in minimum essential medium (MEM) with 2 mM L-glutamine and Earle's balanced salt solution supplemented with 8.3% fetal bovine serum, 0.1 mM non-essential amino acids, 1 mM sodium pyruvate, at 37° C. in 5% CO2. 3.5×10^4 cells/well were plated in 96-well cell culture plates in growth medium supplemented with 8.3% fetal bovine serum for 16-20 h to ˜90% confluency. For transfection, medium was taken off and LXR and cofactor expressing plasmids as well as the reporter plasmids are added in 30 μL OPTIMEM/well including polyethylene-imine (PEI) as vehicle. Typical amounts of plasmids transfected/well: pCMV-AD-LXR (5 ng), pCMV-BD-cofactor (5 ng), pFR-Luc (100 ng), pRL-CMV (0.5 ng). Compound stocks were prepared in DMSO, prediluted in MEM to a total volume of 120 μL, and added 4 h after addition of the transfection mixture (final vehicle concentration not exceeding 0.2%). Cells were incubated for additional 16 h, lysed for 10 min in 1× Passive Lysis Buffer (Promega) and Firefly and Renilla luciferase activities were measured sequentially in the same cell extract using buffers containing D-luciferine and coelenterazine, respectively. Measurements of luminescence were done in a BMG-luminometer.

Compound	EC50
COCc1sccc1-c1c(-c2cccc(N3CC(C(=O)O)C3)c2)n(S(=O)(=O)c2ccc(C)cc2)c2ccc(F)cc12 [3/6]	100 to 1000 nM
CCc1ccc(S(=O)(=O)n2c(-c3cccc(N4CC(C(=O)O)C4)c3)c(-c3ccsc3C#N)c3cc(F)ccc32)cc1 [3/10]	100 to 1000 nM
N#Cc1sccc1-c1c(-c2cccc(N3CC(C(=O)O)C3)c2)n(S(=O)(=O)c2ccc3c(c2)CCC3)c2ccc(F)cc12 [3/12]	< 100 nM
N#Cc1sccc1-c1c(-c2cccc(N3CC(C(=O)O)C3)c2)n(S(=O)(=O)c2ccc3ccccc3c2)c2ccc(F)cc12 [3/13]	< 100 nM
Cc1ccc(S(=O)(=O)n2c(-c3cccc(N4CC(C(=O)O)C4)c3)c(-c3ccsc3C#N)c3cc(F)ccc32)c(F)c1 [3/14]	100 to 1000 nM
CC1CCN(S(=O)(=O)n2c(-c3cccc(-c4ccc(C(=O)O)cc4Cl)c3)c(-c3ccsc3C#N)c3cc(F)ccc32)CC1 [3/21]	< 100 nM
[2H]c1c([2H])c(S(=O)(=O)n2c(-c3cccc(-c4ccc(C(=O)O)cc4Cl)c3)c(-c3ccsc3C#N)c3cc(F)ccc32)c([2H])c([2H])c1C([2H])([2H])[2H] [3/22]	< 100 nM
Cc1cc(S(=O)(=O)n2c(-c3cccc(-c4ccc(C(=O)O)cc4Cl)c3)c(-c3ccsc3C#N)c3cc(F)ccc32)ccc1F [3/23]	< 100 nM
Cc1ccc(S(=O)(=O)n2c(-c3cccc(N4CC(C(=O)O)C4)c3)c(-c3sccc3C#N)c3cc(F)ccc32)cc1 [3/25]	100 to 1000 nM
Cc1ccc(S(=O)(=O)n2c(-c3cccc(N4CC(C(=O)O)C4)c3)c(-c3ccoc3C#N)c3cc(F)ccc32)cc1 [3/26]	100 to 1000 nM
Cc1ccc(S(=O)(=O)n2c(-c3cccc(N4CC(C(=O)O)C4)c3)c(-c3ccsc3CCO)c3cc(F)ccc32)cc1 [3/27]	100 to 1000 nM

target: T3, full length (FL) LXRβ (Homo sapiens, UniProt P55055, DUP175-175); assay: LXR Gal4 reporter transient transfection assay (FL-M2H Gal4β); assay type: cell-based; details: HEK293 cells, full length LXRβ; read-out: FL-M2H Gal4β (EC50 range)
T3 construct: the full length (FL) proteins of LXRα (amino acids 1-447); NP005684; NP009052; expressed in transfected cells; host or cells: HEK293
T3 sequence (P55055 with tags, fused parts or gaps DUP175-175): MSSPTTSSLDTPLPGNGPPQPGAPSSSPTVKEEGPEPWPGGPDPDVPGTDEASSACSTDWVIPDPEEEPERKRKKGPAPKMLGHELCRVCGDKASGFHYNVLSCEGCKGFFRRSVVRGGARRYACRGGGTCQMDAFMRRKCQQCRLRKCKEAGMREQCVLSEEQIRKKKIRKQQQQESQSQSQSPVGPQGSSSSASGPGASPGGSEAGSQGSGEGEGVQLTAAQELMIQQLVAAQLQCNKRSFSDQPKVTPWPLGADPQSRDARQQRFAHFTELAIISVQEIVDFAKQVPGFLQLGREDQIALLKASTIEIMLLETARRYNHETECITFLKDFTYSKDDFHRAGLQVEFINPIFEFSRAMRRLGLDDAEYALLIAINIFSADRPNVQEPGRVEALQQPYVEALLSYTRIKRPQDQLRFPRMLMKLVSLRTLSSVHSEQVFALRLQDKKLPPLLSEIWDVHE
Method: as §1, §2, §3

Compound	EC50
COCc1sccc1-c1c(-c2cccc(N3CC(C(=O)O)C3)c2)n(S(=O)(=O)c2ccc(C)cc2)c2ccc(F)cc12 [3/6]	100 to 1000 nM
CCc1ccc(S(=O)(=O)n2c(-c3cccc(N4CC(C(=O)O)C4)c3)c(-c3ccsc3C#N)c3cc(F)ccc32)cc1 [3/10]	< 100 nM
N#Cc1sccc1-c1c(-c2cccc(N3CC(C(=O)O)C3)c2)n(S(=O)(=O)c2ccc3c(c2)CCC3)c2ccc(F)cc12 [3/12]	< 100 nM
N#Cc1sccc1-c1c(-c2cccc(N3CC(C(=O)O)C3)c2)n(S(=O)(=O)c2ccc3ccccc3c2)c2ccc(F)cc12 [3/13]	< 100 nM
Cc1ccc(S(=O)(=O)n2c(-c3cccc(N4CC(C(=O)O)C4)c3)c(-c3ccsc3C#N)c3cc(F)ccc32)c(F)c1 [3/14]	100 to 1000 nM
CC1CCN(S(=O)(=O)n2c(-c3cccc(-c4ccc(C(=O)O)cc4Cl)c3)c(-c3ccsc3C#N)c3cc(F)ccc32)CC1 [3/21]	< 100 nM
[2H]c1c([2H])c(S(=O)(=O)n2c(-c3cccc(-c4ccc(C(=O)O)cc4Cl)c3)c(-c3ccsc3C#N)c3cc(F)ccc32)c([2H])c([2H])c1C([2H])([2H])[2H] [3/22]	< 100 nM
Cc1cc(S(=O)(=O)n2c(-c3cccc(-c4ccc(C(=O)O)cc4Cl)c3)c(-c3ccsc3C#N)c3cc(F)ccc32)ccc1F [3/23]	< 100 nM
Cc1ccc(S(=O)(=O)n2c(-c3cccc(N4CC(C(=O)O)C4)c3)c(-c3sccc3C#N)c3cc(F)ccc32)cc1 [3/25]	< 100 nM
Cc1ccc(S(=O)(=O)n2c(-c3cccc(N4CC(C(=O)O)C4)c3)c(-c3ccoc3C#N)c3cc(F)ccc32)cc1 [3/26]	< 100 nM
Cc1ccc(S(=O)(=O)n2c(-c3cccc(N4CC(C(=O)O)C4)c3)c(-c3ccsc3CCO)c3cc(F)ccc32)cc1 [3/27]	100 to 1000 nM
